# What was measured:
# Assay type in all cases: in vivo
# [1] = tested on: Leptochloa chinensis; assay: Indoor herbicide activity determination, Seed Treatment; pre-emergence (soil spray); conditions: Dosage 240 g a.i./ha
# Outline: (§1)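 Weed seeds were sown in 7 cm pots of sandy nutrient soil (pH 6.1, 1% organic matter), covered, bottom-watered and held 24 h in a constant-temperature illuminated room before the soil surface was sprayed in a traveling spray tower. Fresh-weight inhibition versus untreated plants was scored 21 days later.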
# [2] = tested on: Alopecurus japonicus; assay: as above; conditions: Dosage 240 g a.i./ha
# Outline: as §1
# [3] = tested on: Lolium multiflorum; assay: as above; conditions: Dosage 240 g a.i./ha
# Outline: as §1
# [4] = tested on: Eleusine indica; assay: as above; conditions: Dosage 240 g a.i./ha
# Outline: as §1
# [5] = tested on: Alopecurus myosuroides; assay: as above; conditions: Dosage 240 g a.i./ha
# Outline: as §1
# [6] = tested on: Cyperus iria; assay: Indoor herbicide activity determination, post-emergence (stem and leaf spray at 2-4 leaf stage); conditions: 504 h, 60 g a.i./ha, determined 21 days later, read-out: Inhibition rate of fresh weight, Cyperus iria
# Source text: (§2) The testing method for herbicide activity of the compound of the present invention was as follows:
# (§3) Post-emergence: an appropriate quantity of seeds of gramineous weeds (Echinochloa crusgalli, Eleusine indica, Digitaria sanguinalis, Alopecurus japonicus, Beckmannia syzigachne, Leptochloa chinensis, Polypogon fugax, Alopecurus aequalis, Lolium multiflorum, Poa annua, Aegilops tauschii, Avena fatua, Alopecurus myosuroides, Alopecurus japonicus and Alopecurus aequalis), broad-leaved weeds (Eclipta prostrata, Amaranthus retroflexus, Rorippa indica, Malachium aquaticum, Veronica polita, Conyza canadensis, Sesbania cannabina, Sagittariatrifolia and Schoenoplectiella juncoides), and Cyperus iria were sown in plastic pots having a diameter of 7 cm and holes at the bottom and filled with nutrient soil (sandy soil, pH 6.1, organic matter 1%) respectively, the seeds were covered with an appropriate amount of soil after being sown, then the soil was wetted with water from the bottom, the seeds were cultured in a constant-temperature illuminated culture room until a 2-4 leaf stage, and stems and leaves underwent spray treatment. After the treatment, the test materials were placed in a laboratory and cultured in the constant-temperature illuminated culture room after the liquid was naturally dry in the shade, and results were determined 21 days later. Inhibition rate of fresh weight % = (1−(fresh weight of treated plants)/(fresh weight of control plants)) × 100% [formula]
# [7] = tested on: Digitaria sanguinalis; assay: as above; conditions: 504 h, 60 g a.i./ha, determined 21 days later, read-out: Inhibition rate of fresh weight, Digitaria sanguinalis
# Source text: as §2, §3
# [8] = tested on: Eclipta prostrata; assay: as above; conditions: 504 h, 60 g a.i./ha, determined 21 days later, read-out: Inhibition rate of fresh weight, Eclipta prostrata
# Source text: as §2, §3
structure (smiles),measurement,setting,value
COC(=O)[C@H]1C[C@@H](NC(=O)C2(C(F)(F)F)CC(c3cc(Cl)cc(Cl)c3)=NO2)C1 (relative stereo) [I-231],"Herbicidal activities, Leptochloa chinensis (inhibition rate class)",[1],A (A indicates that the inhibition rate was greater than or equal to 80% to 100%)
same,"Herbicidal activities, Alopecurus japonicus (inhibition rate class)",[2],A (A indicates that the inhibition rate was greater than or equal to 80% to 100%)
same,"Herbicidal activities, Lolium multiflorum (inhibition rate class)",[3],A (A indicates that the inhibition rate was greater than or equal to 80% to 100%)
same,"Herbicidal activities, Eleusine indica (inhibition rate class)",[4],A (A indicates that the inhibition rate was greater than or equal to 80% to 100%)
same,"Herbicidal activities, Alopecurus myosuroides (inhibition rate class)",[5],A (A indicates that the inhibition rate was greater than or equal to 80% to 100%)
same,inhibition at 60 g/ha,[6],80 to 100%
same,inhibition at 60 g/ha,[7],80 to 100%
same,inhibition at 60 g/ha,[8],60 to 80%
COC(=O)[C@H]1C[C@@H](NC(=O)C2(C(F)(F)F)CC(c3cc(F)cc(C(F)(F)F)c3)=NO2)C1 (relative stereo) [I-243],"Herbicidal activities, Leptochloa chinensis (inhibition rate class)",[1],A (A indicates that the inhibition rate was greater than or equal to 80% to 100%)
same,"Herbicidal activities, Alopecurus japonicus (inhibition rate class)",[2],A (A indicates that the inhibition rate was greater than or equal to 80% to 100%)
same,"Herbicidal activities, Lolium multiflorum (inhibition rate class)",[3],A (A indicates that the inhibition rate was greater than or equal to 80% to 100%)
same,"Herbicidal activities, Eleusine indica (inhibition rate class)",[4],A (A indicates that the inhibition rate was greater than or equal to 80% to 100%)
same,"Herbicidal activities, Alopecurus myosuroides (inhibition rate class)",[5],A (A indicates that the inhibition rate was greater than or equal to 80% to 100%)
same,inhibition at 60 g/ha,[6],80 to 100%
same,inhibition at 60 g/ha,[7],80 to 100%
same,inhibition at 60 g/ha,[8],60 to 80%
COC(=O)[C@H]1C[C@@H](NC(=O)C2(C(F)(F)F)CC(c3cc(F)cc(OC(F)(F)F)c3)=NO2)C1 (relative stereo) [I-251],"Herbicidal activities, Leptochloa chinensis (inhibition rate class)",[1],A (A indicates that the inhibition rate was greater than or equal to 80% to 100%)
same,"Herbicidal activities, Alopecurus japonicus (inhibition rate class)",[2],A (A indicates that the inhibition rate was greater than or equal to 80% to 100%)
same,"Herbicidal activities, Lolium multiflorum (inhibition rate class)",[3],A (A indicates that the inhibition rate was greater than or equal to 80% to 100%)
same,"Herbicidal activities, Eleusine indica (inhibition rate class)",[4],A (A indicates that the inhibition rate was greater than or equal to 80% to 100%)
same,"Herbicidal activities, Alopecurus myosuroides (inhibition rate class)",[5],A (A indicates that the inhibition rate was greater than or equal to 80% to 100%)
same,inhibition at 60 g/ha,[6],80 to 100%
same,inhibition at 60 g/ha,[7],80 to 100%
same,inhibition at 60 g/ha,[8],60 to 80%
C=CC1(C(=O)N[C@H]2C[C@@H](C(=O)O)C2)CC(c2cc(Cl)cc(Cl)c2)=NO1 (mixture of isomers) [I-37],"Herbicidal activities, Leptochloa chinensis (inhibition rate class)",[1],A (A indicates that the inhibition rate was greater than or equal to 80% to 100%)
same,"Herbicidal activities, Alopecurus japonicus (inhibition rate class)",[2],A (A indicates that the inhibition rate was greater than or equal to 80% to 100%)
same,"Herbicidal activities, Lolium multiflorum (inhibition rate class)",[3],A (A indicates that the inhibition rate was greater than or equal to 80% to 100%)
same,"Herbicidal activities, Eleusine indica (inhibition rate class)",[4],A (A indicates that the inhibition rate was greater than or equal to 80% to 100%)
same,"Herbicidal activities, Alopecurus myosuroides (inhibition rate class)",[5],A (A indicates that the inhibition rate was greater than or equal to 80% to 100%)
same,inhibition at 60 g/ha,[6],80 to 100%
same,inhibition at 60 g/ha,[7],80 to 100%
same,inhibition at 60 g/ha,[8],60 to 80%
COC(=O)[C@H]1C[C@@H](NC(=O)C2(C(C)(F)F)CC(c3cc(F)cc(F)c3)=NO2)C1 (relative stereo) [I-347],"Herbicidal activities, Leptochloa chinensis (inhibition rate class)",[1],A (A indicates that the inhibition rate was greater than or equal to 80% to 100%)
same,"Herbicidal activities, Alopecurus japonicus (inhibition rate class)",[2],A (A indicates that the inhibition rate was greater than or equal to 80% to 100%)
same,"Herbicidal activities, Lolium multiflorum (inhibition rate class)",[3],A (A indicates that the inhibition rate was greater than or equal to 80% to 100%)
same,"Herbicidal activities, Eleusine indica (inhibition rate class)",[4],A (A indicates that the inhibition rate was greater than or equal to 80% to 100%)
same,"Herbicidal activities, Alopecurus myosuroides (inhibition rate class)",[5],A (A indicates that the inhibition rate was greater than or equal to 80% to 100%)
same,inhibition at 60 g/ha,[6],80 to 100%
same,inhibition at 60 g/ha,[7],60 to 80%
same,inhibition at 60 g/ha,[8],40 to 60%
CC1(C(=O)N[C@H]2C[C@@H](C(=O)O)C2)CC(c2cc(F)cc(OC(F)(F)F)c2)=NO1 (mixture of isomers) [I-157],"Herbicidal activities, Leptochloa chinensis (inhibition rate class)",[1],A (A indicates that the inhibition rate was greater than or equal to 80% to 100%)
same,"Herbicidal activities, Alopecurus japonicus (inhibition rate class)",[2],A (A indicates that the inhibition rate was greater than or equal to 80% to 100%)
same,"Herbicidal activities, Lolium multiflorum (inhibition rate class)",[3],A (A indicates that the inhibition rate was greater than or equal to 80% to 100%)
same,"Herbicidal activities, Eleusine indica (inhibition rate class)",[4],A (A indicates that the inhibition rate was greater than or equal to 80% to 100%)
same,"Herbicidal activities, Alopecurus myosuroides (inhibition rate class)",[5],A (A indicates that the inhibition rate was greater than or equal to 80% to 100%)
same,inhibition at 60 g/ha,[6],60 to 80%
same,inhibition at 60 g/ha,[7],80 to 100%
same,inhibition at 60 g/ha,[8],60 to 80%
COC(=O)[C@H]1C[C@@H](NC(=O)C2(C)CC(c3cc(F)cc(OC(F)(F)F)c3)=NO2)C1 (mixture of isomers) [I-159],"Herbicidal activities, Leptochloa chinensis (inhibition rate class)",[1],A (A indicates that the inhibition rate was greater than or equal to 80% to 100%)
same,"Herbicidal activities, Alopecurus japonicus (inhibition rate class)",[2],A (A indicates that the inhibition rate was greater than or equal to 80% to 100%)
same,"Herbicidal activities, Lolium multiflorum (inhibition rate class)",[3],A (A indicates that the inhibition rate was greater than or equal to 80% to 100%)
same,"Herbicidal activities, Eleusine indica (inhibition rate class)",[4],A (A indicates that the inhibition rate was greater than or equal to 80% to 100%)
same,"Herbicidal activities, Alopecurus myosuroides (inhibition rate class)",[5],A (A indicates that the inhibition rate was greater than or equal to 80% to 100%)
same,inhibition at 60 g/ha,[6],60 to 80%
same,inhibition at 60 g/ha,[7],80 to 100%
same,inhibition at 60 g/ha,[8],60 to 80%
O=C(N[C@H]1C[C@@H](C(=O)O)C1)C1(C(F)(F)F)CC(c2cccc(F)c2)=NO1 (relative stereo) [I-268],"Herbicidal activities, Leptochloa chinensis (inhibition rate class)",[1],A (A indicates that the inhibition rate was greater than or equal to 80% to 100%)
same,"Herbicidal activities, Alopecurus japonicus (inhibition rate class)",[2],A (A indicates that the inhibition rate was greater than or equal to 80% to 100%)
same,"Herbicidal activities, Lolium multiflorum (inhibition rate class)",[3],A (A indicates that the inhibition rate was greater than or equal to 80% to 100%)
same,"Herbicidal activities, Eleusine indica (inhibition rate class)",[4],A (A indicates that the inhibition rate was greater than or equal to 80% to 100%)
same,"Herbicidal activities, Alopecurus myosuroides (inhibition rate class)",[5],A (A indicates that the inhibition rate was greater than or equal to 80% to 100%)
same,inhibition at 60 g/ha,[6],80 to 100%
same,inhibition at 60 g/ha,[7],80 to 100%
same,inhibition at 60 g/ha,[8],40 to 60%

# — patent EP4722201A1, “3-PHENYLISOXAZOLINE-5-CARBOXAMIDE COMPOUND, AND PREPARATION METHOD THEREFOR, HERBICIDAL COMPOSITION THEREOF AND USE THEREOF” (Jiangsu Flag Chemical Industry Co., Ltd, priority 2023, dated 2024)
